Biological target: T1, Met kinase (Homo sapiens, UniProt P08581)
T1 construct: 6His (N); purchased Upstate 14-526; host or cells: insect cells (Sf21; S. frugiperda), baculovirus
Assay: Met kinase inhibition (enzyme assay), flashplate method
Format: biochemical
Method: Flashplate Method (Met Kinase)
The test plates used are 96-well Flashplate® microtitre plates from Perkin Elmer (Cat. No. SMP200). The components of the kinase reaction described below are pipetted into the assay plate. The Met kinase and the substrate poly Ala-Glu-Lys-Tyr, (PAGLT, 6:2:5:1), are incubated for 3 hrs at room temperature with radioactively labelled ^33P-ATP in the presence and absence of test substances in a total volume of 100 μl. The reaction is terminated using 150 μl of a 60 mM EDTA solution. After incubation for a further 30 min at room temperature, the supernatants are filtered off with suction, and the wells are washed three times with 200 μl of 0.9% NaCl solution each time. The measurement of the bound radioactivity is carried out by means of a scintillation measuring instrument (Topcount NXT, Perkin-Elmer).
The full value used is the inhibitor-free kinase reaction. This should be approximately in the range 6000-9000 cpm. The pharmacological zero value used is staurosporin in a final concentration of 0.1 mM. The inhibitory values (IC50) are determined using the RS1_MTS program.
Kinase reaction conditions per well: • 30 μl of assay buffer • 10 μl of substance to be tested in assay buffer with 10% of DMSO • 10 μl of ATP (final concentration 1 μM cold, 0.35 μCi of ^33P-ATP) • 50 μl of Met kinase/substrate mixture in assay buffer; (10 ng of enzyme/well, 50 ng of pAGLT/well)
Assay Buffer: • 50 mM HEPES • 3 mM magnesium chloride • 3 μM sodium orthovanadate • 3 mM manganese(II) chloride • 1 mM dithiothreitol (DTT) • pH=7.5 (to be set using sodium hydroxide)

T1 sequence (P08581 974-1390 limits assumed): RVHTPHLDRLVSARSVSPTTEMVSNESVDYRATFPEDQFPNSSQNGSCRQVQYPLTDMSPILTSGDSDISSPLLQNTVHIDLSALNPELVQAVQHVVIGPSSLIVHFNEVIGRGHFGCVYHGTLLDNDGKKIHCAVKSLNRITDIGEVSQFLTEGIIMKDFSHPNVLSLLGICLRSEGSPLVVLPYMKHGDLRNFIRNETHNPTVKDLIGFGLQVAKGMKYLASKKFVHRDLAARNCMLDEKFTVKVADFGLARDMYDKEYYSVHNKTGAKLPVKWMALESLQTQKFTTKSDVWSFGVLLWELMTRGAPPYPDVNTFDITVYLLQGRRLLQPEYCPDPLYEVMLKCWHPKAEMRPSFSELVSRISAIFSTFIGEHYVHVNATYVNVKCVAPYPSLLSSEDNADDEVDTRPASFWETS

Row | IC50 | Compound
1 | 0.01 to 1 µM | O=C(Nc1cccc(Cn2nc(-c3cc(F)cc(F)c3)ccc2=O)c1)OCCN1CCNCC1 [A143, 2-Piperazin-1-ylethyl {3-[3-(3,5-difluorophenyl)-6-oxo-6H-pyridazin-1-ylmethyl]phenyl}carbamate]
2 | 0.01 to 1 µM | CN(C)CCCOC(=O)Nc1cccc(Cn2nc(-c3cccc(Cl)c3)ccc2=O)c1 [A17]
3 | 0.01 to 1 µM | N#Cc1cccc(-c2ccc(=O)n(Cc3cccc(NC(=O)OCCCN4CCOCC4)c3)n2)c1 [A88, 3-Morpholin-4-ylpropyl{3-[3-(3-cyanophenyl)-6-oxo-6H-pyridazin-1-ylmethyl]phenyl}carbamate]
4 | 0.01 to 1 µM | COCCCOC(=O)Nc1cccc(Cn2nc(-c3cc(F)cc(F)c3)ccc2=O)c1 [A75, 3-Methoxypropyl {3-[3-(3,5-difluorophenyl)-6-oxo-6H-pyridazin-1-ylmethyl]phenyl}carbamate]
5 | 0.01 to 1 µM | CN(C)CCCOC(=O)Nc1cccc(Cn2nc(-c3ccc(Cl)cc3)ccc2=O)c1 [A15, 3-dimethylaminopropyl {3-[3-(4-chlorophenyl)-6-oxo-6H-pyridazin-1-ylmethyl]phenyl}carbamate]
6 | 0.01 to 1 µM | O=c1ccc(-c2ccc(F)cc2)nn1Cc1ccc2nsnc2c1 [A14]
7 | 0.01 to 1 µM | CCNC(=O)Nc1cccc(Cn2nc(-c3ccc(F)cc3)ccc2=O)c1 [A18, 1-ethyl-3-{3-[3-(4-fluorophenyl)-6-oxo-6H-pyridazin-1-ylmethyl]phenyl}urea]
8 | 0.01 to 1 µM | O=C(Nc1cccc(Cn2nc(-c3cc(F)c(F)c(F)c3)ccc2=O)c1)OCCCN1CCOCC1 [A78, 3-Morpholin-4-ylpropyl {3-[6-oxo-3-(3,4,5-trifluorophenyl)-6H-pyridazin-1-ylmethyl]phenyl}carbamate]
9 | 0.01 to 1 µM | CN1CCN(CCCOC(=O)Nc2cccc(Cn3nc(-c4cc(F)c(F)c(F)c4)ccc3=O)c2)CC1 [A101, 3-(4-Methylpiperazin-1-yl)propyl {3-[6-oxo-3-(3,4,5-trifluorophenyl)-6H-pyridazin-1-ylmethyl]phenyl}carbamate]
10 | 0.01 to 1 µM | CN1CCCC(COC(=O)Nc2cccc(Cn3nc(-c4cc(F)cc(F)c4)ccc3=O)c2)C1 (centres unmarked) [A106, 1-Methylpiperidin-3-ylmethyl {3-[3-(3,5-difluorophenyl)-6-oxo-6H-pyridazin-1-ylmethyl]phenyl}carbamate]
11 | 0.01 to 1 µM | CN(C)CCCCOC(=O)Nc1cccc(Cn2nc(-c3cc(F)cc(F)c3)ccc2=O)c1 [A110, 4-Dimethylaminobutyl {3-[3-(3,5-difluorophenyl)-6-oxo-6H-pyridazin-1-ylmethyl]phenyl}carbamate]
12 | 0.01 to 1 µM | CCNC(=O)Nc1cccc(Cn2nc(-c3cccc(Cl)c3)ccc2=O)c1 [A20]
13 | 0.01 to 1 µM | O=C(Nc1cccc(Cn2nc(-c3cc(F)cc(F)c3)ccc2=O)c1)OCC1CCNCC1 [A156, Piperidin-4-ylmethyl {3-[3-(3,5-difluorophenyl)-6-oxo-6H-pyridazin-1-ylmethyl]phenyl}carbamate]
14 | 0.01 to 1 µM | CCOC(=O)Nc1cccc(Cn2nc(-c3cccs3)ccc2=O)c1 [A19]
15 | 0.01 to 1 µM | O=C(Nc1cccc(Cn2nc(-c3cc(F)c(F)c(F)c3)ccc2=O)c1)OCCN1CCOCC1 [A95, 2-Morpholin-4-ylethyl {3-[6-oxo-3-(3,4,5-trifluorophenyl)-6H-pyridazin-1-ylmethyl]phenyl}carbamate]
16 | 0.01 to 1 µM | CCOC(=O)Nc1cccc(Cn2nc(-c3ccccc3)ccc2=O)c1 [A9]
17 | 0.01 to 1 µM | COc1ccc(-c2ccc(=O)n(Cc3cccc(NC(C)=O)c3)n2)cc1OC [A4]
18 | 0.01 to 1 µM | CN1CCCC1CCOC(=O)Nc1cccc(Cn2nc(-c3cc(F)cc(F)c3)ccc2=O)c1 (centres unmarked) [A105, 2-(1-Methylpyrrolidin-2-yl)ethyl {3-[3-(3,5-difluorophenyl)-6-oxo-6H-pyridazin-1-ylmethyl]phenyl}carbamate]

Row | IC50 | Compound
19 | 0.01 to 1 µM | CNCCCOC(=O)Nc1cccc(Cn2nc(-c3cc(F)cc(F)c3)ccc2=O)c1 [A142, 3-methylaminopropyl {3-[3-(3,5-difluorophenyl)-6-oxo-6H-pyridazin-1-ylmethyl]phenyl}carbamate]
20 | 0.01 to 1 µM | O=c1ccc(-c2ccc(F)cc2)nn1Cc1ccc2c(c1)OCO2 [A12]
21 | 0.01 to 1 µM | CNCCCCOC(=O)Nc1cccc(Cn2nc(-c3cc(F)cc(F)c3)ccc2=O)c1 [A155, 4-Methylaminobutyl {3-[3-(3,5-difluorophenyl)-6-oxo-6H-pyridazin-1-ylmethyl]phenyl}carbamate]
22 | 0.01 to 1 µM | O=C(Nc1cccc(Cn2nc(-c3cccs3)ccc2=O)c1)OCCCN1CCOCC1 [A71, 3-Morpholin-4-ylpropyl [3-(6-oxo-3-thiophen-2-yl-6H-pyridazin-1-ylmethyl)phenyl]carbamate]
23 | 0.01 to 1 µM | CC(=O)Nc1cccc(Cn2nc(-c3ccc(F)cc3)ccc2=O)c1 [A7]
24 | 0.01 to 1 µM | O=c1ccc(-c2cc(F)cc(F)c2)nn1Cc1ccc2[nH]ncc2c1 [A161, 6-(3,5-difluorophenyl)-2-(1H-indazol-5-ylmethyl)-2H-pyridazin-3-one]
25 | 0.01 to 1 µM | O=c1[nH]c2ccc(Cn3nc(-c4cccc(F)c4)ccc3=O)cc2[nH]1 [A127, 5-[3-(3-fluorophenyl)-6-oxo-6H-pyridazin-1-ylmethyl]-1,3-dihydrobenzimidazol-2-one]
26 | 0.01 to 1 µM | O=c1[nH]c2ccc(Cn3nc(-c4cc(F)cc(F)c4)ccc3=O)cc2[nH]1 [A169, 5-[3-(3,5-Difluorophenyl)-6-oxo-6H-pyridazin-1-ylmethyl]-1,3-dihydrobenzimidazol-2-one]
27 | 0.01 to 1 µM | CC(=O)Nc1cccc(Cn2nc(-c3cccc(O)c3)ccc2=O)c1 [A2, N-{3-[3-(3-hydroxyphenyl)-6-oxo-6H-pyridazin-1-ylmethyl]phenyl}acetamide]
28 | 0.01 to 1 µM | CN1CCN(CCCOC(=O)Nc2cccc(Cn3nc(-c4cccc(C#N)c4)ccc3=O)c2)CC1 [A107, 3-(4-Methylpiperazin-1-yl)propyl {3-[3-(3-cyanophenyl)-6-oxo-6H-pyridazin-1-ylmethyl]phenyl}carbamate]
29 | 0.01 to 1 µM | CCOC(=O)Nc1cccc(Cn2nc(-c3cccc(Br)c3)ccc2=O)c1 [A6]
30 | 0.01 to 1 µM | CCN(CC)CCCOC(=O)Nc1cccc(Cn2nc(-c3cc(F)cc(F)c3)ccc2=O)c1 [A109, 3-Diethylaminopropyl {3-[3-(3,5-difluorophenyl)-6-oxo-6H-pyridazin-1-ylmethyl]phenyl}carbamate]
31 | 0.01 to 1 µM | O=C(Nc1cccc(Cn2nc(-c3cc(F)cc(F)c3)ccc2=O)c1)OCCCN1CCCC1 [A74, 3-Pyrrolidin-1-ylpropyl {3-[3-(3,5-difluorophenyl)-6-oxo-6H-pyridazin-1-ylmethyl]phenyl}carbamate]
32 | 0.01 to 1 µM | CCOC(=O)Nc1cccc(Cn2nc(-c3cccc(F)c3)ccc2=O)c1 [A38]
33 | 0.01 to 1 µM | O=C(Nc1cccc(Cn2nc(-c3ccc(F)c(F)c3)ccc2=O)c1)OCCN1CCOCC1 [A81, 2-Morpholin-4-ylethyl {3-[3-(3,4-difluorophenyl)-6-oxo-6H-pyridazin-1-ylmethyl]phenyl}carbamate]
34 | 0.01 to 1 µM | CN1CCN(CCCCOC(=O)Nc2cccc(Cn3nc(-c4cc(F)cc(F)c4)ccc3=O)c2)CC1 [A103, 4-(4-Methylpiperazin-1-yl)butyl {3-[3-(3,5-difluorophenyl)-6-oxo-6H-pyridazin-1-ylmethyl]phenyl}carbamate]
35 | 0.01 to 1 µM | CCOC(=O)Nc1cccc(Cn2nc(-c3cccc(Cl)c3)ccc2=O)c1 [A10]
